Laboratory results: US20240131001A1, “PHARMACEUTICAL APPLICATION OF FUSED RING PHENOLIC COMPOUNDS” (RISEN (SUZHOU) PHARMA TECH CO. LTD., priority 2020, published 2024)
Read-outs that look alike come from different tables or passages of the source.

Assays:
PPK = PPK inhibitor screening assay (Table 1, PPK isoform not given); type: biochemical, Pseudomonas aeruginosa; details: PPK isoform not stated; for IC50: read-out: IC50 Values for PPK Inhibition
Excerpt: (§1) In order to evaluate the inhibitory effect of the compounds on PPKs, the PPK1, PPK2A, PPK2B and PPK2C were used respectively to test the above compounds using a kit described in an article (Liang Peng et al. & Ning Sun (2020) Discovery and antibacterial study of potential PPK1 inhibitors against uropathogenic E. coli, Journal of Enzyme Inhibition and Medicinal Chemistry, 35:1, 1224-1232).

PPK1 = PPK1 (Pseudomonas aeruginosa, UniProt P0DP44); test: PPK inhibitor screening assay, PPK1; type: biochemical
Sequence of PPK1 (P0DP44 whole entry): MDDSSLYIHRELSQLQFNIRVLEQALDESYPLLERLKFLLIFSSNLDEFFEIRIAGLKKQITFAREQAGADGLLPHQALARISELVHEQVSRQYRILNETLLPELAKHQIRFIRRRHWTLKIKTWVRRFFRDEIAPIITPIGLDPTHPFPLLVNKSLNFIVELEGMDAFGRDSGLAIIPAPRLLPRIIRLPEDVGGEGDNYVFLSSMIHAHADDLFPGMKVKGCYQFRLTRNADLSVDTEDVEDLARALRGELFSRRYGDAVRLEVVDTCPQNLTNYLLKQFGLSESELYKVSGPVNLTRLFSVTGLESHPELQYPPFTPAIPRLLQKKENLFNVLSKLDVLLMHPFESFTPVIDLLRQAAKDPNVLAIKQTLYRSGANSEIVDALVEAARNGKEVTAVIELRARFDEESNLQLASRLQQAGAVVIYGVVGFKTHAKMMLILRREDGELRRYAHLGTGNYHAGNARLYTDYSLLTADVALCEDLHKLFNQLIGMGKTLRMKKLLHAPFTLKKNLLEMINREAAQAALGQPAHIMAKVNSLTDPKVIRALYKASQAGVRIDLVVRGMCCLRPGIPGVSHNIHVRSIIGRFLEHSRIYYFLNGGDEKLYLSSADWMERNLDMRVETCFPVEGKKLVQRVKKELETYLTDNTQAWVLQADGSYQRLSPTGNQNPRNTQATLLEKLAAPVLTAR
Excerpt: as §1

PPK2B = PPK2B (Pseudomonas aeruginosa, UniProt Q9I154); test: PPK inhibitor screening assay, PPK2B; type: biochemical
Sequence of PPK2B (Q9I154 whole entry): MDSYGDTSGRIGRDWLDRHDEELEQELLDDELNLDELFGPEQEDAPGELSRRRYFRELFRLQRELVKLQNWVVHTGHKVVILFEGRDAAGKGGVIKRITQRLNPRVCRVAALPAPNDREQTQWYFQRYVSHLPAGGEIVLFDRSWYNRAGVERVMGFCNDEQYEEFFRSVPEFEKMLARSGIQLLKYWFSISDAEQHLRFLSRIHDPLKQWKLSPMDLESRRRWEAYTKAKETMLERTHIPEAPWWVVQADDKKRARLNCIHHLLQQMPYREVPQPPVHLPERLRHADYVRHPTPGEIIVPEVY
Excerpt: as §1

[1] = tested on: human embryonic kidney cells (HEK239T); test: HEK cytotoxicity test (Trypan blue staining cell viability assay); type: cell-based; details: for relative viability rate: 100 μM, relative to DMSO; for cytotoxicity: up to 100 μM
Experimental: FIG. 4: Toxicity Assay of Compound 4 and Compound B on Human Embryonic Kidney Cells (HEK Cells): Relative Viability in the Presence of DMSO (Control), Compound B (100 μM), and Compound 4 (100 μM).
The cytotoxicity of the compounds was assessed in cultured human embryonic kidney cells (HEK239T) using the Trypan blue staining cell viability assay. The blank solvent DMSO, compound B, and compound 4 were tested, respectively.

PPK2C = PPK2C (Pseudomonas aeruginosa, UniProt Q9HYF1); test: PPK inhibitor screening assay, PPK2C; type: biochemical
Sequence of PPK2C (Q9HYF1 whole entry): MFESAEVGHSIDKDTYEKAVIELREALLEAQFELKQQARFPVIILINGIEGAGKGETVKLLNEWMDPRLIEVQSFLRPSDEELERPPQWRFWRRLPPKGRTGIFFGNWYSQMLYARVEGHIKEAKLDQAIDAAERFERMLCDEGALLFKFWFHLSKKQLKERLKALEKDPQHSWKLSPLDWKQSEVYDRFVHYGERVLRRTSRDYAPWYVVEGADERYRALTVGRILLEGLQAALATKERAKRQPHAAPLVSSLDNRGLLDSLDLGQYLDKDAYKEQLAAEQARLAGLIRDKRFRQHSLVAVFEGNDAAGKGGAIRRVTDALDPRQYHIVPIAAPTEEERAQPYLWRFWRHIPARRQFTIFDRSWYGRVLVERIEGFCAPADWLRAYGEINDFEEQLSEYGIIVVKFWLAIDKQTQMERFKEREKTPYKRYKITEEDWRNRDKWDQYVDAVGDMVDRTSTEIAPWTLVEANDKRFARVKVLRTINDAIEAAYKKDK
Excerpt: as §1

PPK2A = PPK2A (Pseudomonas aeruginosa, UniProt Q9I6Z1); test: PPK inhibitor screening assay, PPK2A; type: biochemical
Sequence of PPK2A (Q9I6Z1 whole entry): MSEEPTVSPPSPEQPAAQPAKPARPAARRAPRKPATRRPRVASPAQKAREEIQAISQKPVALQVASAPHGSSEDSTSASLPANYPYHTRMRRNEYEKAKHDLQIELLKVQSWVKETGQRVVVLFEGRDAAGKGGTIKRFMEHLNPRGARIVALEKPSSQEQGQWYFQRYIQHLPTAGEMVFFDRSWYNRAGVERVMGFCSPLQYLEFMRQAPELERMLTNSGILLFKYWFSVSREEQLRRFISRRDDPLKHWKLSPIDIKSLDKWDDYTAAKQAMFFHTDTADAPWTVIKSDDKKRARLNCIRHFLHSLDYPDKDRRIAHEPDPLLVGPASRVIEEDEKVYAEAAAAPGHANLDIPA
Excerpt: as §1

Pseudomonas aeruginosa [2] = test: Nematode survival test; type: in vivo; details: Caenorhabditis elegans infected with wild-type Pseudomonas aeruginosa, six days
Excerpt: FIG. 3: Effect of Compound 4 on the Survival Rate of Nematodes Infected with Pseudomonas Aeruginosa.
Caenorhabditis elegans were divided into five groups A, B, C, D, E, and then subjected to modeling respectively. Caenorhabditis elegans in group A and B were infected with wild-type (WT) Pseudomonas aeruginosa. Group A served as the DMSO control group and group B as compound 4 treatment group. Caenorhabditis elegans in groups C and D were infected with Pseudomonas aeruginosa which was knocked out of all PPK (ΔpolyP, Δppk1Δppk2ΔAppk2BΔ ppk 2C), where group C was DMSO control group and group D served as compound 4 treatment group; and group E was infected with Escherichia coli (0P50E. Coli). After modeling, Caenorhabditis elegans in groups A and C were continuously treated with DMSO, and those in groups B, D and E were continuously treated with compound 4. The environment and conditions were consistent across the five groups. Six days later, the survival rate of nematodes in five groups was calculated.

Pseudomonas aeruginosa [3] = test: Biofilm testing; type: cell-based; details: 100 μM compound
Experimental: FIG. 2: Effect of Compound 4 on Biofilm Formation in Different Pseudomonas Aeruginosa Strains. A: absorbance. The experimental concentration of compound 4 was 100 μM, and “−” or “+” indicates the absence or presence of compound 4; WT: wild-type strain; Δ ppk 1 is the PPK1 knocked out strain; Δ ppk2A, Δppk2B and Δppk2C are the strains with PPK2A, PPK2B, PPK2C knocked out; Δppk1, Δppk2AΔppk2B, Δppk2C are the strains with PPK1, PPK2A, PPK2B and PPK2C knocked out.
Pseudomonas aeruginosa can form biofilm in culture medium. Four groups of LB liquid media were set respectively, among them, group A was inoculated with wild-type Pseudomonas aeruginosa (WT); group B was inoculated with PPK1 knocked out Pseudomonas aeruginosa (A ppkl); group C was inoculated with PPK2A, PPK2B and PPK2C knocked out Pseudomonas aeruginosa (Δ ppk 2A, Δ ppk 2B, Δ ppk 2C); group D was inoculated with PPK1 and PPK2A, PPK2B and PPK2C knocked out Pseudomonas aeruginosa (Δ ppk1, Δ ppk 2Δ A ppk 2B, Δ ppk 2C). After the four groups were infected with Pseudomonas aeruginosa, each group was further divided into two groups, with one group added with DMSO (−) as the control, the other group added with 100 μm compound 4 (+). […] And this biofilm formed in the culture medium of groups A, B, C and D was analyzed using 570 nm visible light.

O=C(O)c1ccc2c(c1)C1(OC2=O)c2ccc(O)cc2Oc2cc(O)ccc21 [E, reference compound]
IC50 (PPK): > 200 µM

Cc1c(C2(c3cc(Br)c(O)c(Br)c3C)OS(=O)(=O)c3ccccc32)cc(Br)c(O)c1Br [Compound F, reference compound]
IC50 Values for PPK Inhibition (PPK): Inactive

O=c1cc(-c2cc(O)c(O)c(O)c2-c2ccsc2)oc2c(O)c(O)ccc12 [Compound 10]
IC50 (PPK): 36 µM

O=S1(=O)OC2(c3ccccc31)c1cc(Br)c(O)c(O)c1Oc1c2cc(Br)c(O)c1O [Compound 6]
IC50 (PPK): 7.59 µM

O=c1c(O)c(-c2ccc(O)cc2O)oc2cc(O)cc(O)c12 [Compound A, reference compound]
IC50 Values for PPK Inhibition (PPK): Inactive

C[C@@H]1O[C@@H](OC[C@H]2O[C@@H](Oc3c(-c4ccc(O)c(O)c4)oc4cc(O)cc(O)c4c3=O)[C@H](O)[C@@H](O)[C@@H]2O)[C@H](O)[C@H](O)[C@H]1O [Compound H, reference compound]
IC50 Values for PPK Inhibition (PPK): Inactive

O=c1oc2c(O)c(O)c(O)c3c(=O)oc4c(O)c(O)cc1c4c23 [Compound 2]
IC50 (PPK): 8 µM
IC50 (PPK1; read-out: IC50 PPK1): 20 µM
IC50 (PPK2B): 59 µM

O=c1oc2c(O)c(O)ccc2c2ccc(O)c(O)c12 [Compound B, reference compound]
IC50 (PPK): 150 µM
relative viability rate [1]: approximately 35%
cytotoxicity [1]: caused a large number of cell death
IC50 (PPK1): 120 µM

O=c1c(O)c(-c2cc(O)c(O)c(O)c2)oc2cc(O)cc(O)c12 [Compound 7]
IC50 (PPK): 39 µM

O=S1(=O)OC2(c3ccccc31)c1ccc(O)c(O)c1Oc1c2ccc(O)c1O [Compound 5]
IC50 (PPK2C): 273 µM
IC50 (PPK2A): 24 µM
IC50 (PPK): 26.3 µM
IC50 (PPK1; read-out: IC50 PPK1): 26 µM
IC50 (PPK2B): 31 µM

O=C1OC2(c3ccc(O)cc3Oc3cc(O)ccc32)c2ccccc21 [D, reference compound]
IC50 (PPK): > 200 µM

O=c1oc2cc(O)ccc2c2ccc(O)c(O)c12 [C, reference compound]
IC50 (PPK): > 100 µM

O=c1c(O)c(-c2ccc(O)c(O)c2)oc2cc(O)cc(O)c12 [Compound G, reference compound]
IC50 (PPK): 177 µM

O=C1OC2(c3ccccc31)c1ccc(O)c(O)c1Oc1c2ccc(O)c1O [Compound 4]
IC50 (PPK2C): 165 µM
IC50 (PPK2A): 16 µM
IC50 (PPK): 17 µM
relative viability rate [1]: ~100%
cytotoxicity [1]: no cytotoxicity
mortality of nematodes (Pseudomonas aeruginosa [2]): significantly reduced
IC50 (PPK1; read-out: IC50 PPK1): 17 µM
IC50 (PPK2B): 20 µM
inhibitory effect on PPK1 and PPK2 seen in biofilm test (Pseudomonas aeruginosa [3]; PPK knocked out strains): not only inhibited PPK1, but also exhibited a good inhibitory effect on PPK2
biofilm formation (570 nm absorbance) (Pseudomonas aeruginosa [3]; wild-type Pseudomonas aeruginosa, 37° C., 24 h): could reduce the formation of biofilm

O=c1cc(-c2cc(O)c(O)c(O)c2Br)oc2c(O)c(O)ccc12 [Compound 1]
IC50 (PPK): 6 µM

O=c1oc2c(O)c(O)cc3c(=O)oc4c(O)c(O)cc1c4c23 [Compound 3]
IC50 (PPK2A): 50 µM
IC50 (PPK): 9 µM
IC50 (PPK1; read-out: IC50 PPK1): 20 µM
IC50 (PPK2B): 48 µM
